Measured values taken from ChEMBL document CHEMBL1122775, “NMR spectroscopic studies of intermediary metabolites of cyclophosphamide. A comprehensive kinetic analysis of the interconversion of cis- and trans-4-hydroxycyclophosphamide with aldophosphamide and the concomitant partitioning of aldophosphamide between irreversible fragmentation and reversible …” (J Med Chem, 1984).

Assay: pKa was determined
Type: physicochemical

Structure (SMILES)	pKa
COc1ccc(N)cc1	5.3
CC(C)(C)N [TERT-BUTYLAMINE]	10.8
